Consider 30 compounds from patent US11401236B2, “Resorcinol derivatives for their cosmetic use” (L'OREAL, priority 2017, dated 2022).

Structures are written as SMILES. Several values for one entry are separate records, joined by “and”; a condition that tells them apart may be missing. Equal entries are not always repeated. Where two headings read alike, the source gives them in different places.

For one data set, the system named is normal human melanocytes. Nature of the data set: Depigmenting activity: reduction of melanin production in normal human melanocytes in vitro. The format is cell-based. The following applies: Melanocyte. Here is the method: The measurement of the depigmenting activity (reduction of melanin production) of compounds of formula (I) was performed by assaying normal human melanocytes in vitro as follows.
First of all, normal human melanocytes were cultured and dispensed into 384 wells. After 24 hours, the culture medium was replaced with a medium containing compounds of formula (I) to be evaluated. The cells were incubated for 72 hours before measurement of the final optical density, which measures the amount of melanin produced by the melanocytes. A dose effect was performed using a wide concentration range of the compounds evaluated. Thus, by making the concentrations and the measurements of melanin correspond, it is possible to determine an IC50 in μM: concentration at which 50% decrease in melanin synthesis is achieved.

Data set [1] concerns coculture of keratinocytes and melanocytes. Nature of the data set: Modulatory effect on melanogenesis and cytotoxicity in a coculture of keratinocytes and melanocytes. The following applies: for IC50: melanin optical density, read-out: IC50 (concentration for which 50% of the melanin synthesis is inhibited). The format is cell-based. The protocol: The modulatory effect on melanogenesis of each compound was measured according to the method described in the patent FR-A-2734825, and also in the article by R. Schmidt, P. Krien and M. Régnier, Anal. Biochem., 235(2), 113-18, 1996. This test is carried out on a coculture of keratinocytes and melanocytes. For the compounds tested, the following were determined: • the cytotoxicity, • the inhibitory activity on melanin synthesis, by estimating the melanin optical density, • the IC50 values (concentration for which 50% of the melanin synthesis is inhibited).

A short description of data set [2]: Stability of the compound (statement in the synthesis example). The format is physicochemical. The following applies: no conditions given.
Data set [3] has as its system pigmented reconstructed epidermis. Description: Experiment on pigmented reconstructed epidermis (melanin versus solvent). The format is cell-based. An excerpt: Experiment on pigmented reconstructed epidermis
Where [4] appears, read: Table 2 test campaign, normal human melanocytes, 72 hours incubation, concentration at which 50% decrease in melanin synthesis is achieved, maximum concentration tested 200 μM, read-out: IC50.
The mark [5] stands for this setting: Homo sapiens, 72 h, Table 3 test campaign, normal human melanocytes, 72 hours incubation, 50% decrease in melanin synthesis, maximum concentration tested 200 μM, read-out: IC50.
Where [6] appears, read: Homo sapiens, prior-art comparison compounds, compared with the Table 2 results, melanin synthesis in normal human melanocytes, read-out: IC50 value.

In the case of `CCN(CC)C(=O)CCC(C)c1ccc(O)cc1O` (centres unmarked) [Compound 24, 4-(2,4-dihydroxyphenyl)-N,N-diethylpentanamide], the IC50 in the data set on normal human melanocytes (setting [4]) worked out at 1020 nM. In the case of `CCCCNC(=O)CCC(C)c1ccc(O)cc1O` (centres unmarked) [Compound 4, N-butyl-4-(2,4-dihydroxyphenyl)pentanamide], the IC50 in the data set with normal human melanocytes (setting [4]) was determined as 692 nM.

Take `CCOC(=O)[C@H](Cc1ccccc1)NC(=O)CCC(C)c1ccc(O)cc1O` (some centres unmarked) [Compound 22, ethyl N-[4-(2,4-dihydroxyphenyl)pentanoyl]phenylalaninate]: the melting point (as a rule, the temperature, or range, at which the solid turns liquid) lay within 51 to 59 °C. The IC50 in the data set with normal human melanocytes (setting [5]) was found to be 8330 nM.

As to `CCOC(=O)C(C)NC(=O)CCC(C)c1ccc(O)cc1O` (racemic) [Compound 17, ethyl N-[4-(2,4-dihydroxyphenyl)pentanoyl]-DL-alaninate], the IC50 with normal human melanocytes (setting [5]) is 391 nM. Besides, in data set [1], the cytotoxicity result is “non-cytotoxic” and the IC50 stood at 120 nM. As to `O=C(O)CCc1ccc(O)cc1O` [(C), reference compound], the IC50 in the data set with normal human melanocytes (setting [6]) was 63100 nM. Take `CC(CCC(=O)NCCc1ccc(O)cc1)c1ccc(O)cc1O` (centres unmarked) [Compound 8, 4-(2,4-dihydroxyphenyl)-N-[2-(4-hydroxyphenyl)ethyl]pentanamide]: the IC50 with normal human melanocytes (setting [4]) was 391 nM.

`COC(=O)CC(C)c1ccc(O)cc1O` (centres unmarked) [(B), reference compound]: the IC50 with normal human melanocytes (setting [6]) was 4970 nM. Take `CC(CCC(=O)NCC1CCCCC1)c1ccc(O)cc1O` (centres unmarked) [Compound 7, N-(cyclohexylmethyl)-4-(2,4-dihydroxyphenyl)pentanamide]: the IC50 in the data set with normal human melanocytes (setting [4]) came to 401 nM. On to `CC(CCC(=O)NCCO)c1ccc(O)cc1O` (centres unmarked) [Compound 9, 4-(2,4-dihydroxyphenyl)-N-(2-hydroxyethyl)pentanamide], for which the IC50 in the data set on normal human melanocytes (setting [4]) was 636 nM. `CC(CCC(=O)OCCCNC(=O)C1OC(C)(C)OCC1(C)C)c1ccc(O)cc1O` (centres unmarked) [Compound 34, 3-{[(2,2,5,5-tetramethyl-1,3-dioxan-4-yl)carbonyl]amino}propyl 4-(2,4-dihydroxyphenyl)pentanoate]: the IC50 in the data set with normal human melanocytes (setting [4]) turned out to be 2950 nM.

Take `CCOC(=O)CCC(C)c1ccc(O)cc1O` (centres unmarked) [Compound 30, ethyl 4-(2,4-dihydroxyphenyl)pentanoate]: in the data set with normal human melanocytes (setting [4]), the IC50 was found to be 1010 nM. Consider `CCC(C)NC(=O)CCC(C)c1ccc(O)cc1O` (centres unmarked) [Compound 5, N-(butan-2-yl)-4-(2,4-dihydroxyphenyl)pentanamide], for which the results for the IC50 in the data set on normal human melanocytes (setting [5]) and in the data set with normal human melanocytes (setting [4]) were 391 nM and 447 nM, respectively. Consider `COCCN(CCOC)C(=O)CCC(C)c1ccc(O)cc1O` (centres unmarked) [Compound 25, 4-(2,4-dihydroxyphenyl)-N,N-bis(2-methoxyethyl)pentanamide], for which the melting point lay in the range of 78 to 81 °C. Moreover, in the data set on normal human melanocytes (setting [5]), the IC50 worked out at 5270 nM. Take `COC(=O)[C@H](CC(C)C)NC(=O)CCC(C)c1ccc(O)cc1O` (some centres unmarked) [Compound 20, methyl N-[4-(2,4-dihydroxyphenyl)pentanoyl]leucinate]: the melting point stood at 63 °C. The IC50 with normal human melanocytes (setting [5]) is 1200 nM. Moreover, in the data set with normal human melanocytes (setting [4]), the IC50 is 1580 nM. In the case of `CC(C)NC(=O)CCC(C)c1ccc(O)cc1O` (centres unmarked) [Compound 3, 4-(2,4-dihydroxyphenyl)-N-(propan-2-yl)pentanamide], the melting point was 60 to 65 °C and 56 °C. Besides, the IC50 with normal human melanocytes (setting [4]) was 617 nM. With `CCOC(=O)[C@H](C)NC(=O)CCC(C)c1ccc(O)cc1O` (stereo partly drawn) [Compound 15, ethyl N-[4-(2,4-dihydroxyphenyl)pentanoyl]-L-alaninate], the melting point lay within 48 to 50 °C. Besides, the IC50 in the data set with normal human melanocytes (setting [4]) worked out at 1080 nM. Take `CCOC(=O)CN(C)C(=O)CCC(C)c1ccc(O)cc1O` (centres unmarked) [Compound 27, ethyl N-[4-(2,4-dihydroxyphenyl)pentanoyl]-N-methylglycinate]: in the data set with normal human melanocytes (setting [5]), the IC50 came out at 51300 nM. The compound `CC(CCC(=O)N[C@H](C)C(=O)O)c1ccc(O)cc1O` (stereo partly drawn) [Compound 18, N-[4-(2,4-dihydroxyphenyl)pentanoyl]-D-alanine] gave a melting point of 65 to 68 °C. In the data set on normal human melanocytes (setting [4]), the IC50 stood at 1630 nM.

`CC(CCC(=O)N1CCOCC1)c1ccc(O)cc1O` (centres unmarked) [Compound 29, 4-(2,4-dihydroxyphenyl)-1-(morpholin-4-yl)pentan-1-one]: the IC50 stood at 1820 nM with normal human melanocytes (setting [5]) and 2940 nM in the data set with normal human melanocytes (setting [4]).

`CC(CCC(N)=O)c1ccc(O)cc1O` (centres unmarked) [Compound 10, 4-(2,4-dihydroxyphenyl)pentanamide] returned a melting point of 54 to 56 °C. In addition, the IC50 in the data set on normal human melanocytes (setting [4]) came out at 1070 nM. As to `CCNC(=O)CCC(C)c1ccc(OC(C)=O)cc1OC(C)=O` (centres unmarked) [Compound 11, 4-[5-(ethylamino)-5-oxopentan-2-yl]benzene-1,3-diyl diacetate], the IC50 with normal human melanocytes (setting [4]) was determined as 940 nM. As to `CC(CCC(=O)N(C)CC(=O)O)c1ccc(O)cc1O` (centres unmarked) [Compound 28, N-[4-(2,4-dihydroxyphenyl)pentanoyl]-N-methylglycine], the IC50 in the data set with normal human melanocytes (setting [5]) worked out at 31100 nM.

With `CC(CCC(=O)O)c1ccc(O)cc1O` (centres unmarked) [Compound 1, 4-(2,4-dihydroxyphenyl)pentanoic Acid], the IC50 in the data set with normal human melanocytes (setting [4]) stood at 4800 nM. Moreover, in data set [2], the “stability of the compound” value is on record as “stable”. Regarding `CNC(=O)/C=C/c1ccc(O)cc1O` [(A), reference compound], the IC50 in the data set with normal human melanocytes (setting [6]) was found to be 3860 nM.

In the case of `CC(CCC(=O)NCC(=O)O)c1ccc(O)cc1O` (centres unmarked) [Compound 14, N-[4-(2,4-dihydroxyphenyl)pentanoyl]glycine], the melting point was in the range of 59 to 65 °C. In addition, the IC50 in the data set on normal human melanocytes (setting [5]) turned out to be 18500 nM. For `CCCCc1ccc(O)cc1O` [Lucinol, 4-n-butyl resorcinol, reference compound], the “Comparison of melanin with respect to the solvent (DMSO)” value in data set [3] (effective concentration 500 μM) is on record as −25%. The IC50 in data set [1] is 790 nM. For the compound `CCN(CCO)C(=O)CCC(C)c1ccc(O)cc1O` (centres unmarked) [Compound 26, 4-(2,4-dihydroxyphenyl)-N-ethyl-N-(2-hydroxyethyl)pentanamide], the IC50 turned out to be 1960 nM in the data set with normal human melanocytes (setting [4]) and 450 nM in data set [1]. The cytotoxicity result in data set [1] is recorded as “non-cytotoxic”. As to `CCNC(=O)CCC(C)c1ccc(O)cc1O` (centres unmarked) [Compound 2, 4-(2,4-dihydroxyphenyl)-N-ethylpentanamide], in data set [3] (comparison with lucinol), the depigmenting efficiency result was “greater than lucinol”. For the same compound, the “Comparison of melanin with respect to the solvent (DMSO)” value in data set [3] (effective concentration 50 μM) was −26%. Further, in the data set on normal human melanocytes (setting [4]), the IC50 was determined as 824 nM.

Regarding `CC(CCC(=O)OC[C@@H](O)[C@H](O)[C@@H](O)CO)c1ccc(O)cc1O` (stereo partly drawn) [Compound 32, 5-O-[4-(2,4-dihydroxyphenyl)pentanoyl]-D-xylitol], the IC50 in the data set on normal human melanocytes (setting [4]) was found to be 3030 nM. `CC(CCC(=O)NC1CCCCC1)c1ccc(O)cc1O` (centres unmarked) [Compound 6, N-cyclohexyl-4-(2,4-dihydroxyphenyl)pentanamide] displayed a melting point of 75 to 78 °C. Also, the IC50 in the data set with normal human melanocytes (setting [5]) is 391 nM. The IC50 in the data set with normal human melanocytes (setting [4]) was found to be 557 nM. For the same compound, in data set [1], the cytotoxicity entry is “non-cytotoxic” and the IC50 came to 140 nM.
